Source: ChEMBL document CHEMBL1201862, “PubChem BioAssay data set” (2004)
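Protocol summary: plate cells (96-well), add compound at 5 concentrations, incubate 48 h, interpolate endpoints linearly. GI50: concentration for 50% inhibition of growth.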 Activity calls are given as the source filed them. Rule as the data show it: active = GI50 up to about 1.1 µM and inactive = higher.

Legend:
Test in all cases: NCI tumour cell line growth inhibition, 48 h
HT-29 = tested on: HT-29
MDA-MB-435 = tested on: MDA-MB-435
CAKI-1 = tested on: CAKI-1
U-251 = tested on: U-251
PC-3 = tested on: PC-3
OVCAR-4 = tested on: OVCAR-4
HCT-116 = tested on: HCT-116
Malme-3M = tested on: Malme-3M
786-0 = tested on: 786-0
SNB-19 = tested on: SNB-19
SR = tested on: SR
HOP-62 = tested on: HOP-62
MCF7 = tested on: MCF7
SNB-75 = tested on: SNB-75
OVCAR-8 = tested on: OVCAR-8
MOLT-4 = tested on: MOLT-4
SK-MEL-2 = tested on: SK-MEL-2
M14 = tested on: M14
T47D = tested on: T47D
DU-145 = tested on: DU-145
MDA-MB-231 = tested on: MDA-MB-231
RPMI-8226 = tested on: RPMI-8226
EKVX = tested on: EKVX
RXF 393 = tested on: RXF 393
NCI-H460 = tested on: NCI-H460
SN12C = tested on: SN12C
MDA-N = tested on: MDA-N
CCRF-CEM = tested on: CCRF-CEM
OVCAR-3 = tested on: OVCAR-3
SK-MEL-28 = tested on: SK-MEL-28
NCI-H522 = tested on: NCI-H522
A498 = tested on: A498
SF-268 = tested on: SF-268
HOP-92 = tested on: HOP-92
UO-31 = tested on: UO-31
SF-295 = tested on: SF-295
KM12 = tested on: KM12
K562 = tested on: K562
NCI/ADR-RES = tested on: NCI/ADR-RES
HCT-15 = tested on: HCT-15
A549 = tested on: A549
SF-539 = tested on: SF-539
Hs-578T = tested on: Hs-578T
TK-10 = tested on: TK-10
NCI-H226 = tested on: NCI-H226
HL-60 = tested on: HL-60
SW-620 = tested on: SW-620
SK-MEL-5 = tested on: SK-MEL-5
COLO 205 = tested on: COLO 205
UACC-62 = tested on: UACC-62
ACHN = tested on: ACHN
IGROV-1 = tested on: IGROV-1
OVCAR-5 = tested on: OVCAR-5
LOX IMVI = tested on: LOX IMVI
UACC-257 = tested on: UACC-257
NCI-H23 = tested on: NCI-H23
SK-OV-3 = tested on: SK-OV-3
HCC 2998 = tested on: HCC 2998

## CCOC(=O)NC(C(C(=O)OCC)C(=O)OCC)(C(F)(F)F)C(F)(F)F
HT-29
  GI50: > 100 µM (inactive)
MDA-MB-435
  GI50: > 100 µM (inactive)
CAKI-1
  GI50: > 100 µM (inactive)
U-251
  GI50: > 100 µM (inactive)
PC-3
  GI50: > 100 µM (inactive)
OVCAR-4
  GI50: > 100 µM (inactive)
HCT-116
  GI50: > 100 µM (inactive)
Malme-3M
  GI50: > 100 µM (inactive)
786-0
  GI50: > 100 µM (inactive)
SNB-19
  GI50: > 100 µM (inactive)
SR
  GI50: > 100 µM (inactive)
HOP-62
  GI50: > 100 µM (inactive)
MCF7
  GI50: > 100 µM (inactive)
SNB-75
  GI50: > 100 µM (inactive)
OVCAR-8
  GI50: > 100 µM (inactive)
MOLT-4
  GI50: > 100 µM (inactive)
SK-MEL-2
  GI50: > 100 µM (inactive)
M14
  GI50: > 100 µM (inactive)
T47D
  GI50: > 100 µM (inactive)
DU-145
  GI50: > 100 µM (inactive)
MDA-MB-231
  GI50: > 100 µM (inactive)
RPMI-8226
  GI50: > 100 µM (inactive)
EKVX
  GI50: > 100 µM (inactive)
RXF 393
  GI50: > 100 µM (inactive)
NCI-H460
  GI50: > 100 µM (inactive)
SN12C
  GI50: > 100 µM (inactive)
MDA-N
  GI50: > 100 µM (inactive)
CCRF-CEM
  GI50: > 100 µM (inactive)
OVCAR-3
  GI50: > 100 µM (inactive)
SK-MEL-28
  GI50: > 100 µM (inactive)
NCI-H522
  GI50: > 100 µM (inactive)
A498
  GI50: > 100 µM (inactive)
SF-268
  GI50: > 100 µM (inactive)
HOP-92
  GI50: > 100 µM (inactive)
UO-31
  GI50: > 100 µM (inactive)
SF-295
  GI50: > 100 µM (inactive)
KM12
  GI50: > 100 µM (inactive)
K562
  GI50: > 100 µM (inactive)
NCI/ADR-RES
  GI50: > 100 µM (inactive)
HCT-15
  GI50: > 100 µM
A549
  GI50: > 100 µM (inactive)
SF-539
  GI50: > 100 µM (inactive)
Hs-578T
  GI50: > 100 µM (inactive)
TK-10
  GI50: > 100 µM (inactive)
NCI-H226
  GI50: > 100 µM (inactive)
HL-60
  GI50: > 100 µM (inactive)
SW-620
  GI50: > 100 µM (inactive)
SK-MEL-5
  GI50: > 100 µM (inactive)
COLO 205
  GI50: > 100 µM (inactive)
UACC-62
  GI50: > 100 µM (inactive)
ACHN
  GI50: > 100 µM (inactive)
IGROV-1
  GI50: > 100 µM (inactive)
OVCAR-5
  GI50: > 100 µM (inactive)
LOX IMVI
  GI50: > 100 µM (inactive)
UACC-257
  GI50: > 100 µM (inactive)
NCI-H23
  GI50: > 100 µM (inactive)

## COC(=O)CCc1ccc2c(c1)CC1(Cc3ccccc3C1)C2
HT-29
  GI50: > 100 µM (inactive)
MDA-MB-435
  GI50: > 100 µM (inactive)
U-251
  GI50: > 100 µM (inactive)
PC-3
  GI50: > 100 µM (inactive)
OVCAR-4
  GI50: > 100 µM (inactive)
SK-OV-3
  GI50: > 100 µM (inactive)
HCT-116
  GI50: 95.1 µM (inactive)
Malme-3M
  GI50: > 100 µM (inactive)
786-0
  GI50: > 100 µM (inactive)
HOP-62
  GI50: > 100 µM (inactive)
MCF7
  GI50: > 100 µM (inactive)
SNB-75
  GI50: < 0.01 µM (active)
OVCAR-8
  GI50: > 100 µM (inactive)
MOLT-4
  GI50: 77.1 µM (inactive)
HCC 2998
  GI50: > 100 µM (inactive)
SK-MEL-2
  GI50: 14.3 µM (inactive)
M14
  GI50: > 100 µM (inactive)
T47D
  GI50: > 100 µM (inactive)
MDA-MB-231
  GI50: > 100 µM (inactive)
RPMI-8226
  GI50: > 100 µM (inactive)
EKVX
  GI50: > 100 µM (inactive)
RXF 393
  GI50: > 100 µM (inactive)
SN12C
  GI50: > 100 µM (inactive)
MDA-N
  GI50: > 100 µM (inactive)
CCRF-CEM
  GI50: 34.6 µM (inactive)
OVCAR-3
  GI50: > 100 µM (inactive)
NCI-H522
  GI50: 74 µM (inactive)
A498
  GI50: > 100 µM (inactive)
HOP-92
  GI50: 97.5 µM (inactive)
UO-31
  GI50: > 100 µM (inactive)
SF-295
  GI50: > 100 µM (inactive)
KM12
  GI50: > 100 µM (inactive)
K562
  GI50: > 100 µM (inactive)
NCI/ADR-RES
  GI50: > 100 µM (inactive)
HCT-15
  GI50: > 100 µM
A549
  GI50: 98.4 µM (inactive)
SF-539
  GI50: > 100 µM (inactive)
Hs-578T
  GI50: > 100 µM (inactive)
TK-10
  GI50: > 100 µM (inactive)
NCI-H226
  GI50: > 100 µM (inactive)
HL-60
  GI50: 51.9 µM (inactive)
SK-MEL-5
  GI50: 33.6 µM (inactive)
COLO 205
  GI50: > 100 µM (inactive)
UACC-62
  GI50: 57.3 µM (inactive)
ACHN
  GI50: > 100 µM (inactive)
IGROV-1
  GI50: > 100 µM (inactive)
OVCAR-5
  GI50: > 100 µM (inactive)
LOX IMVI
  GI50: > 100 µM (inactive)
UACC-257
  GI50: > 100 µM (inactive)
NCI-H23
  GI50: > 100 µM (inactive)
